{"source": "paper PMC3929664", "about": "“A Panel of Diverse Assays to Interrogate the Interaction between Glucokinase and Glucokinase Regulatory Protein, Two Vital Proteins in Human Disease” (PLoS ONE, 2014)", "molecules": {"B1": {"name": "Recombinant FLAG-tagged human glucokinase regulatory protein (natural protein, UniProt Q14397 1-625, looked up)", "chain": "MPGTKRFQHVIETPEPGKWELSGYEAAVPITEKSNPLTQDLDKADAENIVRLLGQCDAEIFQEEGQALSTYQRLYSESILTTMVQVAGKVQEVLKEPDGGLVVLSGGGTSGRMAFLMSVSFNQLMKGLGQKPLYTYLIAGGDRSVVASREGTEDSALHGIEELKKVAAGKKRVIVIGISVGLSAPFVAGQMDCCMNNTAVFLPVLVGFNPVSMARNDPIEDWSSTFRQVAERMQKMQEKQKAFVLNPAIGPEGLSGSSRMKGGSATKILLETLLLAAHKTVDQGIAASQRCLLEILRTFERAHQVTYSQSPKIATLMKSVSTSLEKKGHVYLVGWQTLGIIAIMDGVECIHTFGADFRDVRGFLIGDHSDMFNQKAELTNQGPQFTFSQEDFLTSILPSLTEIDTVVFIFTLDDNLTEVQTIVEQVKEKTNHIQALAHSTVGQTLPIPLKKLFPSIISITWPLLFFEYEGNFIQKFQRELSTKWVLNTVSTGAHVLLGKILQNHMLDLRISNSKLFWRALAMLQRFSGQSKARCIESLLRAIHFPQPLSDDIRAAPISCHVQVAHEKEQVIPIALLSLLFRCSITEAQAHLAAAPSVCEAVRSALAGPGQKRTADPLEILEPDVQ", "notes": "glucokinase regulatory protein (GKRP), encoded by GCKR, human; also called GKRP; FLAG-GKRP; source: prepared as described previously [24], [35]"}}, "key": {"[1]": {"test_system": "GCK (recombinant GST-GCK)", "conditions": "cited from earlier work"}, "[2]": {"molecular_target": "T1, recombinant human GST-GCK (Homo sapiens, UniProt P35557)", "T1 construct": "GST (glutathione-S-transferase); made in house", "T1 sequence (P35557 1-465)": "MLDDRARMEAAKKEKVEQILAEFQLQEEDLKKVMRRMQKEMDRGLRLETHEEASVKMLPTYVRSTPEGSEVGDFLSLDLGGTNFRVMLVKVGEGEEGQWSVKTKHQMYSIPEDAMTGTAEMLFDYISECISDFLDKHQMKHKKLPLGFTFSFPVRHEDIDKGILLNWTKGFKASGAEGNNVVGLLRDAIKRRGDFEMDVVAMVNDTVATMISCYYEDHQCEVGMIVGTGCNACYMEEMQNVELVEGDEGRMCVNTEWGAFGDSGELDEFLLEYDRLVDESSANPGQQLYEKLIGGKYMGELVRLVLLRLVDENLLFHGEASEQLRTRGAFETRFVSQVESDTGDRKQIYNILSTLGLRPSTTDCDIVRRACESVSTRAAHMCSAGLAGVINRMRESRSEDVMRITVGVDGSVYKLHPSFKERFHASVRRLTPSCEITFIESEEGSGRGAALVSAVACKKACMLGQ", "assay_type": "biochemical", "conditions": "4 nM GCK, 37.5 mM glucose, fit accounting for substrate inhibition, mean ± SD; read-out: ATP Km", "quoted_text": "The ATP Km for GCK was determined by fluorescent monitoring of NADH oxidation using a dual-coupling system whereby generation of ADP by GCK was coupled to oxidation of NADH via PK and LDH (Figure S2A) [37]. The final reaction contained 4 nM GCK, glucose in five-fold excess of the calculated glucose S0.5 (37.5 mM), and ATP concentrations ranging from 0 to 2 mM. The reaction was initiated by addition of ATP and read immediately, then every 10 seconds for 5 minutes. Each ATP concentration was tested in quadruplicate. The initial slopes (v0) for each concentration were determined by linear regression (GraphPad Prism, GraphPad Software, San Diego, CA, USA), and then v0 was plotted against ATP concentration (Figure S2B).\n(A) Reaction scheme of PK/LDH dual-coupled assay. The reaction included 4 nM GCK. (B) Reaction progress over the first 60 seconds was monitored by the loss of NADH fluorescence at 450 nm using a ViewLux Microplate Imager and results analyzed by linear regression. Resultant slopes from regression were plotted and the curve fit using nonlinear regression accounting for substrate inhibition in GraphPad Prism to give a best-fit Km value."}, "[3]": {"molecular_target": "T2, GCK-GKRP interaction (recombinant human GST-GCK and FLAG-GKRP) (Homo sapiens, UniProt P35557+Q14397)", "T2 construct": "made in house", "T2 sequence (P35557 1-465)": "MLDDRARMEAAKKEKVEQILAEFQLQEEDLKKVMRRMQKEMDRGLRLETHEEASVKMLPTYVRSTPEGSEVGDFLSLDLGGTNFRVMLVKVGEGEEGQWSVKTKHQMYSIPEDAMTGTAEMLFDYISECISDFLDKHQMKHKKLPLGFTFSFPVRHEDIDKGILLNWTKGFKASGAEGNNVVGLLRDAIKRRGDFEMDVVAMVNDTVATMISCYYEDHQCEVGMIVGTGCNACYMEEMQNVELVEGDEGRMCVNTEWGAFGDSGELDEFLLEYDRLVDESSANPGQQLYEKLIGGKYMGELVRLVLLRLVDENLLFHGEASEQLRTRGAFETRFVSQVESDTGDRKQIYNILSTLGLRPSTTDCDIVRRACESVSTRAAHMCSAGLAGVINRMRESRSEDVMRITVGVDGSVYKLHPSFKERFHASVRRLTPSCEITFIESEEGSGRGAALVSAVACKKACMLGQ", "T2 sequence (Q14397 1-625)": "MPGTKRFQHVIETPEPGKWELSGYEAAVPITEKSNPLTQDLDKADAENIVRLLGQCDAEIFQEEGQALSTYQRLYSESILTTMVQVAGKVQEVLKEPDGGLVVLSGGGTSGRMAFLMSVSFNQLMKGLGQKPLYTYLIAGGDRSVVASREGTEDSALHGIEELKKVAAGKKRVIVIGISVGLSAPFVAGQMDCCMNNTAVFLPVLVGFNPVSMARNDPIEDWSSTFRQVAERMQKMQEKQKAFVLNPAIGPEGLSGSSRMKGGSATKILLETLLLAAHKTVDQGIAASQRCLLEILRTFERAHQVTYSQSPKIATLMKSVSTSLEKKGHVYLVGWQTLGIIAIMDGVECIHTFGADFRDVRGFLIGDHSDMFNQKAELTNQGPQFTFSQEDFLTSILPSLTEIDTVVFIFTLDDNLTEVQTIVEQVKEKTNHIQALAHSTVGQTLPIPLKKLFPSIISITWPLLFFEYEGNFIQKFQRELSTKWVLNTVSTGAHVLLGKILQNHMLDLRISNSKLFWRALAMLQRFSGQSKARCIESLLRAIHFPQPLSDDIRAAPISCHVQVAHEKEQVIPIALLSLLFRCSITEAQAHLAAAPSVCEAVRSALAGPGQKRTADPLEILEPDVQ", "assay": "HTRF assay of the GCK-GKRP protein-protein interaction", "assay_type": "binding", "conditions": "5 nM GCK, 5 nM GKRP, 2 µM S6P, mean ± SD; read-out: IC50 (inhibition of GCK-GKRP interaction, HTRF signal)", "experimental": "Homogeneous time-resolved fluorescence (HTRF) technology (Cisbio Bioassays, Bedford, MA, USA) was utilized for antibody-based FRET measurement of the GCK-GKRP protein-protein interaction. Recombinant human GST-GCK and FLAG-GKRP were mixed in an HTRF assay buffer containing 2 mM MgCl2, 25 mM KCl, 25 mM HEPES, 1 mM DTT, 0.1% Tween-20, and 0.025% BSA (all buffer components Sigma-Aldrich). The pH was adjusted to 7.1 by drop-wise addition of 10 N NaOH. […] For assays in 1536-well plate format, the two reaction mixes were dispensed using an Aurora Discovery BioRAPTR Flying Reagent Dispenser (BioRAPTR; Beckman Coulter, Inc., Brea, CA, USA) (3 µl/well for protein-containing buffer; 1 µl/well for detection antibodies) into white 1536-well solid-bottom medium binding plates (Greiner Bio-One, Monroe, NC, USA). […] For the LOPAC^1280 library screen, column 1 was all components with DMSO (maximum signal) and column 3 was no GKRP with DMSO (minimum signal). These two control columns were used for data normalization. The final HTS protocol is in Table S1, and the data have been deposited in PubChem (AID 743207).\nS6P, F1P, and glucose were dissolved in water; GKAs were dissolved in DMSO.\nThe assay was validated using a range (0–150 nM) of GCK and GKRP concentrations at manufacturer-recommended detection antibody concentrations ( Figure 2A ). Fluorescence was measured immediately upon mixing, and every 30 minutes thereafter for a total of 240 minutes. The plate was covered and incubated at room temperature throughout the course of the experiment.\nThe assay was miniaturized to 1536-well plate format and, concurrently, specificity of detection was validated by using known modulators of the GCK-GKRP interaction.\nThe EC80 value represents a compromise between the desire for large enough signal enhancement and the need to maintain a binding level that is not too saturated so that it can be outcompeted by compounds of interest. Additionally, this approach enables detection of specific competitors of S6P, which would likely be acting on GKRP as desired, and not on GCK. […] Both glucose and GKAs interfere with the binding of GKRP to GCK and decrease GKRP inhibition, [44], [45], while F1P binds to GKRP and is competitive with respect to S6P [46]."}, "[4]": {"molecular_target": "T1, recombinant human GST-GCK", "assay": "GCK glucose S0.5 and Hill coefficient by luminescent ADP-Glo assay", "assay_type": "biochemical", "conditions": "4 nM GCK, 4 mM ATP, 45 minutes", "quoted_text": "The glucose S0.5 and Hill coefficient for GCK were calculated using a luminescent assay measuring the production of ADP by GCK (ADP-Glo™ Kinase Assay, Promega Corporation, Madison, WI, USA; see below). Luminescence was measured at 18 glucose concentrations from 0.1 to 100 mM (two separate experiments; each n = 8 for each concentration).\nThe assay included 4 nM GCK and 4 mM ATP and was terminated after 45 minutes. Each data point is mean ± SEM (n = 8). Curves were fit using nonlinear regression with the allosteric sigmoidal option in GraphPad Prism to determine the S0.5 and Hill coefficient."}, "[5]": {"test_system": "cryopreserved pooled male Sprague-Dawley rat hepatocytes", "assay": "GCK translocation in cryopreserved rat hepatocytes (high-content imaging)", "assay_type": "cell-based", "conditions": "2 hours", "quoted_text": "Plateable cryopreserved pooled male Sprague-Dawley rat hepatocytes (lot number NPD) were thawed and plated (40,000 cells/well) in Biocoat black/clear collagen-coated 96-well plates (BD Biosciences, San Jose, CA, USA) in InVitroGRO™ CP Rat medium supplemented with Torpedo™ Antibiotic Mix (BioreclamationIVT). After hepatocyte attachment, media was changed to InVitroGRO™ HI Rat medium with Torpedo™ Antibiotic Mix.\nHepatocytes were fixed in 4% PFA for 15 minutes. PFA was then removed and cells were washed twice in Dulbecco’s phosphate-buffered saline (DPBS) containing 0.2% Triton-X and then permeabilized for 10 minutes with DPBS/0.2% Triton-X. Cells were then treated for 30 minutes with Odyssey protein blocking buffer (Li-cor Biosciences, Lincoln, NE, USA) before addition of a mouse monoclonal IgG2a GKRP antibody [GCKR (A-8); Santa Cruz Biotechnology, Inc., Santa Cruz, CA, USA]. The antibody (200 µg/ml) was diluted (1∶50) in protein blocking buffer and incubated with cells for 120 minutes. Cells were then washed (4×5 minutes) in PBS/0.1% Tween-20 before addition of protein blocking buffer containing Alexa Fluor® 647 Goat Anti-Mouse IgG (H+L) (Invitrogen; 1∶500 dilution) and rabbit polyclonal GCK antibody [1∶30 dilution; GCK (H-88) 200 µg/ml; Santa Cruz Biotechnology]. After 60 minutes, cells were washed with PBS/0.1% Tween-20 (4×5 minutes). […]"}, "[6]": {"test_system": "cryopreserved human hepatocytes", "assay": "GCK translocation in cryopreserved human hepatocytes (GKRP-positive cells)", "assay_type": "cell-based", "quoted_text": "Plateable cryopreserved human hepatocytes (female, lot number TRZ; male, lot number FOS) were plated at 50,000 cells/well in Biocoat black/clear collagen-coated 96-well plates in InVitroGRO™ CP medium supplemented with Torpedo™ Antibiotic Mix. After hepatocyte attachment, media was changed to InVitroGRO™ HI medium with Torpedo™ Antibiotic Mix.\nHepatocytes were fixed in 4% PFA for 15 minutes. PFA was then removed and cells were washed twice in Dulbecco’s phosphate-buffered saline (DPBS) containing 0.2% Triton-X and then permeabilized for 10 minutes with DPBS/0.2% Triton-X. Cells were then treated for 30 minutes with Odyssey protein blocking buffer (Li-cor Biosciences, Lincoln, NE, USA) before addition of a mouse monoclonal IgG2a GKRP antibody [GCKR (A-8); Santa Cruz Biotechnology, Inc., Santa Cruz, CA, USA]. The antibody (200 µg/ml) was diluted (1∶50) in protein blocking buffer and incubated with cells for 120 minutes. Cells were then washed (4×5 minutes) in PBS/0.1% Tween-20 before addition of protein blocking buffer containing Alexa Fluor® 647 Goat Anti-Mouse IgG (H+L) (Invitrogen; 1∶500 dilution) and rabbit polyclonal GCK antibody [1∶30 dilution; GCK (H-88) 200 µg/ml; Santa Cruz Biotechnology]. After 60 minutes, cells were washed with PBS/0.1% Tween-20 (4×5 minutes). Following a 60-minute incubation with blocking buffer and goat anti-rabbit IgG-HRP (1∶500 dilution; sc-2004; Santa Cruz Biotechnology), cells were washed with PBS/0.1% Tween-20 (4×5 minutes). Fluorescent detection of the HRP-conjugated secondary antibody was enabled using a 10-minute incubation with fluorescein-conjugated tyramide from the Tyramide Signal Amplification kit (PerkinElmer). The tyramide solution was prepared in DMSO (Sigma-Aldrich) according to the manufacturer’s instructions. Cells were then washed (3×5 minutes) with PBS/0.1% Tween-20 before a final five-minute wash with PBS/0.1% Tween-20 containing 0.02 mg/ml Hoechst 33342 Trihydrochloride Trihydrate (Hoechst; Invitrogen) for visualization of nuclei. After Hoechst staining, all cells were then stored in 100 µl DPBS at 4°C. […]"}, "[7]": {"molecular_target": "T3, Recombinant glutathione-S-transferase (GST)-tagged human glucokinase (human, UniProt P35557 1-465)", "T3 construct": "glucokinase (GCK), human; also called GCK; GST-GCK; source: prepared as described previously [24], [35]", "T3 sequence (looked up)": "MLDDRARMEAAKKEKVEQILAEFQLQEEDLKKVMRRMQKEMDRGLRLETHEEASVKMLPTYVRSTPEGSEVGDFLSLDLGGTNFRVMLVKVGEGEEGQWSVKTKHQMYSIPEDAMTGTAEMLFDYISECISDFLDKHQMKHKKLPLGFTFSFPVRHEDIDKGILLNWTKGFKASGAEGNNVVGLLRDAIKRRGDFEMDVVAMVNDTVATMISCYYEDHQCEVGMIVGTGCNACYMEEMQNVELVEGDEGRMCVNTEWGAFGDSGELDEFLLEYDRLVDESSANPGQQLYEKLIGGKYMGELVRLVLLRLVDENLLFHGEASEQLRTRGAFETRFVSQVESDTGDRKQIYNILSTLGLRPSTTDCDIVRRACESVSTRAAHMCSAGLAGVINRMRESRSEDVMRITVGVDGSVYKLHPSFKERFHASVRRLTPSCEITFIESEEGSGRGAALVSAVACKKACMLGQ", "assay": "AlphaScreen or HTRF; 384-well plate; GST-GCK and FLAG-GKRP each titrated 0-150 nM in solution; anti-GST K (donor) and anti-FLAG XL 665 (acceptor) antibodies; 2 mM MgCl2, 25 mM KCl, 25 mM HEPES, 1 mM DTT, 0.1% Tween-20, 0.025% BSA, pH 7.1; room temperature, read at t = 60 minutes; signal ratio 665 nm/615 nm", "conditions": "both partners purified"}, "[8]": {"molecular_target": "T3, Recombinant glutathione-S-transferase …", "assay": "AlphaScreen or HTRF; 1536-well plate, 4 µl final volume; 5 nM GST-GCK and 5 nM FLAG-GKRP in solution, without S6P or with S6P (2 µM for the inhibitor tests); anti-GST K and anti-FLAG XL 665 antibodies; HTRF assay buffer pH 7.1; room temperature, 60 minutes; signal ratio 665 nm/615 nm", "conditions": "both partners purified"}}, "data": [{"molecule": "Nc1ncnc2c1ncn2[C@@H]1O[C@H](COP(=O)(O)OP(=O)(O)OP(=O)(O)O)[C@@H](O)[C@H]1O", "note": "[ATP]", "values": [{"measurement": "Km", "setting": "[1]; recombinant GST-GCK, read-out: ATP Km, previously described", "result": 400, "unit": "µM"}, {"measurement": "Km", "setting": "[2]", "result": "400 ± 110", "unit": "µM"}]}, {"molecule": "OC[C@H]1OC(O)[C@H](O)[C@@H](O)[C@@H]1O", "note": "(some centres unmarked) [glucose]", "values": [{"measurement": "Hill coefficient, previously reported", "setting": "[1]", "result": "1.6–1.7"}, {"measurement": "glucose S0.5, previously reported", "setting": "[1]", "result": "7.5 to 10", "unit": "mM"}, {"measurement": "IC50", "setting": "[3]", "result": "16 ± 1.4", "unit": "mM"}, {"measurement": "Hill coefficient", "setting": "[4]; mean ± SD", "result": "1.53±0.1"}, {"measurement": "glucose S0.5", "setting": "[4]; mean ± SD across two experiments", "result": "7.5 ± 0.8", "unit": "mM"}, {"measurement": "cells with translocated GCK", "setting": "[5]; 2.5 mM glucose", "result": 25, "unit": "%"}, {"measurement": "cells with translocated GCK", "setting": "[5]; 16.7 mM glucose", "result": 84, "unit": "%"}, {"measurement": "increase in number of translocation-positive cells", "setting": "[6]; 25 mM glucose compared to 2.5 mM glucose, both lots (TRZ, FOS)", "result": "approximately 10%"}]}, {"molecule": "OC[C@@H](O)[C@@H](O)[C@H](O)[C@@H](O)CO", "note": "[sorbitol]", "values": [{"measurement": "GCK translocation response", "setting": "[6]; lot FOS", "result": "no translocation was observed"}, {"measurement": "GCK translocation response", "setting": "[6]; lot TRZ, 2.5 mM glucose", "result": "approximately four-fold"}]}, {"molecule": "B1", "values": [{"measurement": "HTRF signal ratio (665 nm/615 nm) at 5.56 nM of both proteins", "setting": "[7]", "result": 1.77}, {"measurement": "HTRF signal ratio (665 nm/615 nm) at 5 nM of both proteins, no S6P", "setting": "[8]", "result": 1.87}]}]}
